Reference: patent publication US12428416B2 (California Institute of Technology, priority 2018, dated 2025)

Assays:
[1] = tested on: drug-sensitive cell lines of Table 4; experiment: Cell line growth retardation assay, average over sensitive cohort; assay type: cell-based, Human; conditions: Homo sapiens, 144 h; geometric mean of IC50s over sensitive cohort (Table 4); 6 days growth; read-out: AvgSens IC50
Experimental: (§1) Cell Line Growth Retardation Assay
(§2) Cells were seeded at densities of 1,000-5,000 cells per well in 48-well tissue culture plates. After a 24 h rest period, cells were treated with compound at 10 μM, 2 μM, 0.4 μM, 0.08 μM, 0.016 μM, and 0.0032 μM. A group of cells were treated with the vehicle in which the compound was prepared and served as a control. The cells were grown in the presence of compounds for 6 days and were counted on day 0 and day 6. All cell counting was performed using a Synentec Cellavista plate imager. […] Growth inhibition was calculated as a ratio of cell population doublings in the presence of compound versus the absence of compound. […] IC50 values for each compound were calculated by fitting curves to data points from each dose-response assay using the Proc NLIN function in SAS for Windows version 9.2 (SAS Institute, Inc.).
(§3) Designation of Sensitivity and Resistant Cohorts and Calculation of Average IC50 Values
(§4) Human cancer cell lines were grouped as “sensitive” or “resistant” to ERK1 inhibition based on whether their growth was retarded by KO-947 (i.e., 1,5,6,8-tetrahydro-6-(phenylmethyl)-3-(4-pyridinyl)-7H-pyrazolo[4,3-g]quinazolin-7-one) and SCH772984 (i.e., (3R)-1-[2-oxo-2-[4-[4-(2-pyrimidinyl)phenyl]-1-piperazinyl]ethyl]-N-[3-(4-pyridinyl)-1H-indazol-5-yl]-3-pyrrolidinecarboxamide) (data not shown; see Table 4). These sensitive and resistant cohorts were interrogated for response to each compound, and IC50s were calculated for each cell line using the same technique described above. Average IC50s for the sensitive and resistant cohorts were calculated as geometric means of the group.

ERK2 = ERK2 (Homo sapiens, UniProt P28482); experiment: ERK1 and 2 Enzymatic Inhibition Assay (ERK2); assay type: biochemical; conditions: 10 assay concentrations 2×10^−6 M to 6×10^−11 M, 1% DMSO
Sequence of ERK2 (P28482 whole entry): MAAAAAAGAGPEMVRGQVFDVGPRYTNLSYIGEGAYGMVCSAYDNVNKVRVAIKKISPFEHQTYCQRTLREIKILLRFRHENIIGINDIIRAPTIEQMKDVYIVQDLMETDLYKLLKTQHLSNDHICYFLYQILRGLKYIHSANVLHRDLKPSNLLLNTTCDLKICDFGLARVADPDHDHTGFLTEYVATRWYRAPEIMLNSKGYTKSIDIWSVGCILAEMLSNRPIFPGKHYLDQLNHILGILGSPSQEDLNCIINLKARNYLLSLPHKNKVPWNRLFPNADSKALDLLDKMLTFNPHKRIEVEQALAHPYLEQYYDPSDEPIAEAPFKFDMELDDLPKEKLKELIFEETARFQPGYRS
Experimental: (§5) ERK1 and 2 Enzymatic Inhibition Assay
(§6) For the Ki determination assay, 200 μM stock solutions of compounds were subjected to a serial, semi-logarithmic dilution using 100% DMSO as a solvent. 10 distinct concentrations were prepared, with a dilution endpoint of 6×10^−9 M in 100% DMSO. 100% DMSO was used as a control. 10 μL from each of the serial dilutions were aliquoted into separate wells of a 96-well plate and 90 μL of water were added to each of those wells. The plate was shaken thoroughly, and 5 μL from each of the plate's wells were transferred into wells of the assay plate. The final volume of wells in the assay plate was 50 μL. All compounds were tested at 10 assay concentrations in the range from 2×10^−6 M to 6×10^−11 M. The final DMSO concentration in the wells of the assay plate was 1% in all cases.

[2] = tested on: drug-resistant cell lines of Table 4; experiment: Cell line growth retardation assay, average over resistant cohort; assay type: cell-based, Human; conditions: Homo sapiens, 144 h; geometric mean of IC50s over resistant cohort (Table 4); 6 days growth; read-out: AvgRes IC50
Experimental: as §1, §2, §3, §4

ERK1 = ERK1 (Homo sapiens, UniProt P27361); experiment: ERK1 and 2 Enzymatic Inhibition Assay (ERK1); assay type: biochemical; conditions: 10 assay concentrations 2×10^−6 M to 6×10^−11 M, 1% DMSO
Sequence of ERK1 (P27361 whole entry): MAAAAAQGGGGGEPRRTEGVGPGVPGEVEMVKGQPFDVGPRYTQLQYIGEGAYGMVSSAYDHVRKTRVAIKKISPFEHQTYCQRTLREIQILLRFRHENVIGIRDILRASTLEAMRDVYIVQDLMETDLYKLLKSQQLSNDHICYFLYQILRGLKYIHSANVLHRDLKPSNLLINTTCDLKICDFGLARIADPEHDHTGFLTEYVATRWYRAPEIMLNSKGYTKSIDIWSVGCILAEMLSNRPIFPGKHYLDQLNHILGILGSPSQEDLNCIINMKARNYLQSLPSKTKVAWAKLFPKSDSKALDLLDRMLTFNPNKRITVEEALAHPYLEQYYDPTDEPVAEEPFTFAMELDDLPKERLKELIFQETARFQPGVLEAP
Experimental: as §5, §6

Row | Kd (ERK2) [µM] | Kd (ERK1) [µM] | Structure (SMILES) | IC50 [1] [µM] | IC50 [2] [µM]
1 | > 0.1 | > 0.1 | CN(Cc1ccccc1)C(=O)c1ncc(-c2c[nH]c3ncc(N4CCOCC4)cc23)cn1 [Compound 8, N-benzyl-N-methyl-5-(5-morpholino-1H-pyrrolo[2,3-b]pyridin-3-yl)pyrimidine-2-carboxamide] | > 0.5 | > 0.5
2 | > 0.1 | > 0.1 | O=C(NCCc1ccccc1)c1ccc(-c2c[nH]c3ncc(N4CCOCC4)cc23)nc1 [Compound 9, 6-(5-morpholino-1H-pyrrolo[2,3-b]pyridin-3-yl)-N-phenethylnicotinamide] | > 0.5 | > 0.5
3 | > 0.1 | > 0.1 | O=C(NCc1ccc(C(F)(F)F)cc1)c1ncc(-c2c[nH]c3ncc(N4CCOCC4)cc23)cn1 [Compound 10, 5-(5-morpholino-1H-pyrrolo[2,3-b]pyridin-3-yl)-N-(4-(trifluoromethyl)benzyl)pyrimidine-2-carboxamide] | > 0.5 | > 0.5
4 | > 0.1 | 0.011 to 0.1 | O=C(NCCc1ccccc1)c1ccc(-c2c[nH]c3ncc(N4CCOCC4)cc23)nn1 [Compound 13, 6-(5-morpholino-1H-pyrrolo[2,3-b]pyridin-3-yl)-N-phenethylpyridazine-3-carboxamide] | > 0.5 | > 0.5
5 | 0.011 to 0.1 | 0.011 to 0.1 | c1ccc([C@H]2CN=C(c3ncc(-c4c[nH]c5ncc(N6CCOCC6)cc45)cn3)N2)cc1 [Compound 15, (S)-4-(3-(2-(5-phenyl-4,5-dihydro-1H-imidazol-2-yl)pyrimidin-5-yl)-1H-pyrrolo[2,3-b]pyridin-5-yl)morpholine] | > 0.5 | > 0.5
6 | 0.011 to 0.1 | 0.011 to 0.1 | C[C@H](c1ccccc1)N(C)C(=O)c1ncc(-c2c[nH]c3ncc(N4CCOCC4)cc23)cn1 [Compound 17] | > 0.5 | > 0.5
7 | 0.011 to 0.1 | 0.011 to 0.1 | O=C(c1ncc(-c2c[nH]c3ncc(N4CCOCC4)cc23)cn1)N1CCC[C@@H]1c1ccccc1 [Compound 18, (R)-(5-(5-morpholino-1H-pyrrolo[2,3-b]pyridin-3-yl)pyrimidin-2-yl)(2-phenylpyrrolidin-1-yl)methanone] | > 0.5 | > 0.5
8 | > 0.1 | > 0.1 | O=C(c1ncc(-c2c[nH]c3ncc(N4CCOCC4)cc23)cn1)N1CCC[C@H]1c1ccccc1 [Compound 19, (S)-(5-(5-morpholino-1H-pyrrolo[2,3-b]pyridin-3-yl)pyrimidin-2-yl)(2-phenylpyrrolidin-1-yl)methanone] | > 0.5 | > 0.5
9 | 0.011 to 0.1 | ≤ 0.01 | C[C@@H](NC(=O)c1ncc(-c2c[nH]c3ncc(N4CCOCC4)cc23)cn1)c1cccc(C(F)(F)F)c1 [Compound 21, (R)-5-(5-morpholino-1H-pyrrolo[2,3-b]pyridin-3-yl)-N-(1-(3-(trifluoromethyl)phenyl)ethyl)pyrimidine-2-carboxamide] | 0.251 to 0.5 | > 0.5
10 | 0.011 to 0.1 | 0.011 to 0.1 | CC(NC(=O)c1ncc(-c2c[nH]c3ncc(N4CCOCC4)cc23)cn1)c1ccn(C)c1 (stereo not drawn) [Compound 24, N-(1-(1-methyl-1H-pyrrol-3-yl)ethyl)-5-(5-morpholino-1H-pyrrolo[2,3-b]pyridin-3-yl)pyrimidine-2-carboxamide] | > 0.5 | > 0.5
11 | ≤ 0.01 | ≤ 0.01 | C[C@H](CNC(=O)c1ncc(-c2c[nH]c3ncc(N4CCOCC4)cc23)cn1)c1ccccc1 [Compound 32] | 0.251 to 0.5 | > 0.5
12 | ≤ 0.01 | ≤ 0.01 | C[C@H](NC(=O)c1ncc(-c2c[nH]c3ncc(-c4ccncc4)cc23)cn1)c1ccccc1 [Compound 39, (S)—N-(1-phenylethyl)-5-(5-(pyridin-4-yl)-1H-pyrrolo[2,3-b]pyridin-3-yl)pyrimidine-2-carboxamide] | ≤ 0.25 | > 0.5
13 | ≤ 0.01 | ≤ 0.01 | C[C@H](NC(=O)c1ncc(-c2c[nH]c3ncc(N4CCOCC4)cc23)cn1)c1ccccc1F [Compound 44, (S)—N-(1-(2-fluorophenyl)ethyl)-5-(5-morpholino-1H-pyrrolo[2,3-b]pyridin-3-yl)pyrimidine-2-carboxamide] | ≤ 0.25 | > 0.5
14 | ≤ 0.01 | ≤ 0.01 | C[C@H](NC(=O)c1ncc(-c2c[nH]c3ncc(N4CCOCC4)cc23)cn1)c1ccccc1Cl [Compound 45, (S)—N-(1-(2-chlorophenyl)ethyl)-5-(5-morpholino-1H-pyrrolo[2,3-b]pyridin-3-yl)pyrimidine-2-carboxamide] | ≤ 0.25 | > 0.5
15 | ≤ 0.01 | ≤ 0.01 | COc1ccccc1[C@H](C)NC(=O)c1ncc(-c2c[nH]c3ncc(N4CCOCC4)cc23)cn1 [Compound 46, (S)—N-(1-(2-methoxyphenyl)ethyl)-5-(5-morpholino-1H-pyrrolo[2,3-b]pyridin-3-yl)pyrimidine-2-carboxamide] | 0.251 to 0.5 | > 0.5
16 | ≤ 0.01 | ≤ 0.01 | O=C(NC(c1ccccc1)C1CC1)c1ncc(-c2c[nH]c3ncc(N4CCOCC4)cc23)cn1 (stereo not drawn) [Compound 49, N-(cyclopropyl(phenyl)methyl)-5-(5-morpholino-1H-pyrrolo[2,3-b]pyridin-3-yl)pyrimidine-2-carboxamide] | 0.251 to 0.5 | > 0.5
17 | 0.011 to 0.1 | 0.011 to 0.1 | CCN1C[C@H](c2ccccc2)N=C1c1ncc(-c2c[nH]c3ncc(N4CCOCC4)cc23)cn1 [Compound 51, (S)-4-(3-(2-(1-ethyl-4-phenyl-4,5-dihydro-1H-imidazol-2-yl)pyrimidin-5-yl)-1H-pyrrolo[2,3-b]pyridin-5-yl)morpholine] | 0.251 to 0.5 | > 0.5
18 | 0.011 to 0.1 | 0.011 to 0.1 | c1ccc([C@H]2CN=C(c3ncc(-c4c[nH]c5ncc(N6CCOCC6)cc45)cn3)O2)cc1 [Compound 55, (S)-4-(3-(2-(5-phenyl-4,5-dihydrooxazol-2-yl)pyrimidin-5-yl)-1H-pyrrolo[2,3-b]pyridin-5-yl)morpholine] | > 0.5 | > 0.5
19 | 0.011 to 0.1 | 0.011 to 0.1 | C[C@H]1N=C(c2ncc(-c3c[nH]c4ncc(N5CCOCC5)cc34)cn2)O[C@H]1c1ccccc1 [Compound 56, 4-(3-(2-((4R,5S)-4-methyl-5-phenyl-4,5-dihydrooxazol-2-yl)pyrimidin-5-yl)-1H-pyrrolo[2,3-b]pyridin-5-yl)morpholine] | > 0.5 | > 0.5
20 | 0.011 to 0.1 | 0.011 to 0.1 | O=C(NCCc1ccccn1)c1ncc(-c2c[nH]c3ncc(N4CCOCC4)cc23)cn1 [Compound 60, 5-(5-morpholino-1H-pyrrolo[2,3-b]pyridin-3-yl)-N-(2-(pyridin-2-yl)ethyl)pyrimidine-2-carboxamide] | > 0.5 | > 0.5
21 | ≤ 0.01 | ≤ 0.01 | O=C(NCCc1ccccc1Cl)c1ncc(-c2c[nH]c3ncc(N4CCOCC4)cc23)cn1 [Compound 61, N-(2-chlorophenethyl)-5-(5-morpholino-1H-pyrrolo[2,3-b]pyridin-3-yl)pyrimidine-2-carboxamide] | 0.251 to 0.5 | > 0.5
